A word on the IC50: it is the concentration needed to halve the response being measured.

Results on 15 compounds are retold here after US12435062B2, “Amide compounds and uses thereof” (HUTCHISON MEDIPHARMA LIMITED, priority 2020, dated 2025).

Bounds are passed on as bounds.

Experiment [1] has as its system Ba/F3^BCR-FMS-11 cells. The experiment in a line: Cell proliferation experiment (Ba/F3^BCR-FMS-11, cckit-8). Format: cell-based, mouse. Conditions: Mus musculus, 72 h, Ba/F3^BCR-FMS-11 cell proliferation. In short, it runs like this:
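Ba/F3 cells stably expressing BCR-FMS, CSF-1R-dependent for growth, seeded at 5000/well in RPMI 1640 with 10% FBS and exposed to 8 compound concentrations for 72 h at 37 °C.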

Experiment [2] addresses CSF1R phosphorylation in THP-1 cells (Homo sapiens (Human), UniProt P07333). The experiment in a line: Detection of CSF1R phosphorylation activity at cell level (THP-1, M-CSF stimulated, ELISA). The class given is cell-based. Conditions: p-CSF1R ELISA, compound 60 min, 300 ng/mL M-CSF 1 min. In outline:
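THP-1 cells (5×10^4/well, RPMI 1640, 2% FBS) were pre-treated with compound for 60 min at 37 °C, then stimulated with 300 ng/mL M-CSF for 1 min and lysed. Phospho-CSF1R was read by sandwich ELISA (p-CSF1R capture, anti-phosphotyrosine-HRP detection, OD 450/570 nm). IC50 was fitted with cell-free wells as background.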
A general note: An ELISA detects its analyte on a solid surface through an enzyme-linked reagent.

Experiment [3] addresses Recombinant human CSF1R kinase (Homo sapiens (Human), UniProt P07333). Format: biochemical. Conditions: Z-LYTE Tyr 1 peptide substrate.

Recombinant human CSF1R kinase, sequence (P07333 20-972): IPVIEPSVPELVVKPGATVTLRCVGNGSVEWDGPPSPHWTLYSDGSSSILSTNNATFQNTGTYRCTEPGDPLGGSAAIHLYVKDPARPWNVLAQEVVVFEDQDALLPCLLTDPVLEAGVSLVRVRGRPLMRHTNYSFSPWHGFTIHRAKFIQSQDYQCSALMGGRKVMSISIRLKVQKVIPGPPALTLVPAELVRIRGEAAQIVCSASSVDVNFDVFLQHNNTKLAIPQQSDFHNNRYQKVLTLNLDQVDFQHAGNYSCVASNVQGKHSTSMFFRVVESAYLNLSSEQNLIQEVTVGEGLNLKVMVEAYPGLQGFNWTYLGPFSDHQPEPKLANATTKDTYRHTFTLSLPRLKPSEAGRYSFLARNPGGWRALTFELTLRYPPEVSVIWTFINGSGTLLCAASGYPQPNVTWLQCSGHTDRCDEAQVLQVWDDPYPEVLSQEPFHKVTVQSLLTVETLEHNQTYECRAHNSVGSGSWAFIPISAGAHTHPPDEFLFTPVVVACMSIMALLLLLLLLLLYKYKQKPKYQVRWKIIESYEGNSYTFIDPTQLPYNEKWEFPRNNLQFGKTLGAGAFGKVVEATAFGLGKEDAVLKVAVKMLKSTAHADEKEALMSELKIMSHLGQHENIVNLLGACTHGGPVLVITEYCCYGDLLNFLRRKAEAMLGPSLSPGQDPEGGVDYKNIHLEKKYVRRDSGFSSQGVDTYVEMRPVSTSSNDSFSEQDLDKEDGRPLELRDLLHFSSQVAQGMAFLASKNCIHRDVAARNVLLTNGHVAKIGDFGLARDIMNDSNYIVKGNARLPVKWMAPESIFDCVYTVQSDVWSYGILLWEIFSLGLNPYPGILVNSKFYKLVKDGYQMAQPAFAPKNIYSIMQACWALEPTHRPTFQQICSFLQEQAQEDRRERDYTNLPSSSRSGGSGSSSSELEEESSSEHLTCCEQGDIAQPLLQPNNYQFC
CSF1R phosphorylation in THP-1 cells, sequence (P07333 20-972): as above

Turning to `Cc1ncc(C(=O)Nc2ccc(Oc3ccnc(-c4cn[nH]c4)c3)cn2)c(=O)n1C` [Compound 130, N-(5-((2-(1H-pyrazol-4-yl)pyridin-4-yl)oxy)pyridin-2-yl)-1,2-dimethyl-6-oxo-1,6-dihydropyrimidine-5-carboxamide], the IC50 was found to be 15 nM in experiment [1], 7 nM in experiment [2] and 21 nM in experiment [3].

As for `CC(C)n1cccc(C(=O)Nc2ccc(Oc3ccnc(-c4cnn(CCO)c4)c3)cn2)c1=O` [Compound 95, N-(5-((2-(1-(2-hydroxyethyl)-1H-pyrazol-4-yl)pyridin-4-yl)oxy)pyridin-2-yl)-1-isopropyl-2-oxo-1,2-dihydropyridine-3-carboxamide], the IC50 is 14 nM in experiment [1], 16 nM in experiment [2] and 8 nM in experiment [3].

`Cc1ncc(C(=O)Nc2ccc(Oc3cc(-c4cnn(C)c4)ncn3)cn2)c(=O)n1C` [Compound 5, 1,2-dimethyl-N-(5-((6-(1-methyl-1H-pyrazol-4-yl)pyrimidin-4-yl)oxy)pyridin-2-yl)-6-oxo-1,6-dihydropyrimidine-5-carboxamide]: the IC50 in experiment [1] came out at 47 nM; in experiment [2], 11 nM; in experiment [3], 22 nM.

Turning to `Cn1cc(Nc2cc(Oc3ccc(NC(=O)c4cc(F)cn(C)c4=O)nc3)ccn2)cn1` [Compound 78], the IC50 was 11 nM in experiment [1], 11 nM in experiment [2] and 15 nM in experiment [3].

In the case of `COc1ccc(C(=O)Nc2ccc(Oc3ccnc(-c4cnn(C)c4)c3)cn2)c(=O)n1C` [Compound 3, 6-methoxy-1-methyl-N-(5-((2-(1-methyl-1H-pyrazol-4-yl)pyridin-4-yl)oxy)pyridin-2-yl)-2-oxo-1,2-dihydropyridine-3-carboxamide], the IC50 in experiment [1] was 12 nM; in experiment [2] it was 63 nM; in experiment [3], 5 nM.

As for `Cn1nccc1Nc1cc(Oc2ccc(NC(=O)c3cccn(C)c3=O)nc2)ccn1` [Compound 48], the IC50 in experiment [1], in experiment [2] and in experiment [3] was 5 nM in each case.

On to `CC(C)n1cccc(C(=O)Nc2ccc(Oc3ccnc(-c4ccn(C)n4)c3)cn2)c1=O` [Compound 71], for which the IC50 in experiment [1] stood at 51 nM; in experiment [2], 36 nM; in experiment [3], 10 nM.

Regarding `Cc1ncc(C(=O)Nc2ccc(Oc3ccnc(-c4cnn(C(F)F)c4)c3)cn2)c(=O)n1C` [Compound 49], the figures for the IC50 in experiment [1], in experiment [2] and in experiment [3] were 24 nM, 14 nM and 23 nM, respectively.

As for `Cn1cc(-c2cc(Oc3ccc(NC(=O)c4cnc(CO)[nH]c4=O)nc3)ccn2)cn1` [Compound 133, 2-(hydroxymethyl)-N-(5-((2-(1-methyl-1H-pyrazol-4-yl)pyridin-4-yl)oxy)pyridin-2-yl)-6-oxo-1,6-dihydropyrimidine-5-carboxamide], the results for the IC50 in experiment [1], in experiment [2] and in experiment [3] were above 3300 nM, above 3000 nM and 548 nM, respectively.

For the compound `Cn1cc(-c2cc(Oc3ccc(NC(=O)c4cccn(C(F)F)c4=O)nc3)ccn2)cn1` [Compound 61], the values for the IC50 in experiment [1], in experiment [2] and in experiment [3] were 87 nM, 75 nM and 45 nM, respectively.

On to `Cn1cc(-c2cc(Oc3ccc(NC(=O)c4cccn(C5CCC5)c4=O)nc3)ccn2)cn1` [Compound 89], for which the IC50 in experiment [1] came out at 8 nM; in experiment [2] it was 16 nM; in experiment [3], 8 nM.

Regarding `CC(C)n1cccc(C(=O)Nc2ccc(Oc3ccnc(-c4cnn(C)c4)c3)cn2)c1=O` [Compound 86], the figures for the IC50 in experiment [1], in experiment [2] and in experiment [3] were 7 nM, 7 nM and 5 nM, respectively.

Take `Cc1ncc(C(=O)Nc2ccc(Oc3ccnc(-c4cccs4)c3)cn2)c(=O)n1C` [Compound 116]: the IC50 in experiment [1] turned out to be 201 nM; in experiment [2], 21 nM; in experiment [3] it was 105 nM.

As to `Cc1ncc(C(=O)Nc2ccc(Oc3ccnc(-c4ccccn4)c3)cn2)c(=O)n1C` [Compound 34], the values for the IC50 in experiment [1], in experiment [2] and in experiment [3] were 125 nM, 24 nM and 79 nM, respectively.

Take `Cn1cc(-c2cc(Oc3ccc(NC(=O)c4nccn(C)c4=O)nc3)ccn2)cn1` [Compound 58]: the IC50 was 179 nM in experiment [1], 126 nM in experiment [2] and 69 nM in experiment [3].
